Results published in article PMC6999911, “New 2-Ethylthio-4-methylaminoquinazoline derivatives inhibiting two subunits of cytochrome bc1 in Mycobacterium tuberculosis” (PLoS Pathogens, 2020).
In brackets after ≈: the same amount, converted by molar mass. Where two headings read alike, the source gives them in different places.

Legend:
Escherichia coli PQ37 = assay: MIC, different organisms; format: cell-based
[1] = system: Mycobacterium tuberculosis Erdman; assay: MIC, different organisms; format: cell-based
Pseudomonas aeruginosa = assay: MIC, different organisms; format: cell-based
[2] = system: Mycobacteroides abscessus subsp. abscessus 2005–0524; assay: MIC, different organisms; format: cell-based
Listeria monocytogenes = assay: MIC, different organisms; format: cell-based
Micrococcus luteus = assay: MIC, different organisms; format: cell-based
[3] = system: Mycobacterium bovis BCG Pasteur; assay: microbe, parasite or virus in culture; format: cell-based; conditions: Mycobacterium tuberculosis variant bovis BCG
[4] = system: Corynebacterium diphtheriae; assay: MIC, different organisms; format: cell-based
in vitro = conditions: human, microsomes
[5] = microsomes
[6] = system: Mycobacterium tuberculosis MDR 59744; assay: MIC, different organisms; format: cell-based
[7] = system: Mycolicibacterium vaccae ATCC 15483; assay: MIC, different organisms; format: cell-based; conditions: ATCC15483
[8] = system: Mycobacterium avium ATCC15769; assay: MIC, different organisms; format: cell-based
[9] = system: THP-1 macrophages infected with M.tb H37Rv; assay: Ex vivo drug susceptibility in infected THP-1 macrophages; format: cell-based; conditions: Mycobacterium tuberculosis; THP-1 macrophages infected with H37Rv, 48h
[10] = system: non-replicating, streptomycin-starved strain 18b; assay: Activity against non-replicating strain 18b (model for latent TB); format: cell-based, Mycobacterium tuberculosis; conditions: streptomycin-starved 18b
Pseudomonas putida = assay: MIC, different organisms; format: cell-based
Candida albicans = assay: MIC, different organisms; format: cell-based
Bacillus subtilis = assay: MIC, different organisms; format: cell-based
[11] = system: Mycobacterium smegmatis mc^2155; assay: MIC, different organisms; format: cell-based; conditions: Mycolicibacterium smegmatis
[12] = system: Mycobacterium tuberculosis HN878; assay: MIC, different organisms; format: cell-based
Salmonella typhimurium = assay: MIC, different organisms; format: cell-based; conditions: Salmonella enterica
[13] = system: Mycobacterium canettii STB-L; assay: MIC, different organisms; format: cell-based; conditions: Mycobacterium canetti
Enterococcus faecalis = assay: MIC, different organisms; format: cell-based
[14] = system: Corynebacterium glutamicum ATCC13032; assay: MIC, different organisms; format: cell-based
Staphylococcus aureus = assay: MIC, different organisms; format: cell-based
[15] = system: Mycobacteroides abscessus subsp. massiliense 2005–0484; assay: MIC, different organisms; format: cell-based
HepG2 cells = format: cell-based, Human; conditions: for Selective index TD50/MIC: HepG2 TD50 / H37Rv MIC; for HepG2 TD99: Toxic dose that inhibits 99% of cell growth, 3 days
Description: Human HepG2 cells (ATCC HB-8065, 4000 cells/well) were incubated for 3 days with two-fold serially diluted compounds at 37°C, under an atmosphere of 5% CO2. Cell viability was determined by the addition of resazurin (0.0025% w/v) for 5 h at 37°C and the fluorescence intensity measured as in REMA.

[16] = system: Mycobacteroides abscessus subsp. bolletii 1999–0888; assay: MIC, different organisms; format: cell-based
[17] = system: Mycobacterium marinum Strain M; assay: MIC, different organisms; format: cell-based
M. tb H37Rv [18] = format: cell-based; conditions: 1X - 32X MIC, 7 days
M. tb H37Rv ΔcydAB [19] = format: cell-based; conditions: ΔcydAB strain of M. tb H37Rv, even after CCCP
H37Rv = format: cell-based, Mycobacterium tuberculosis; conditions: 2.5X MIC, 24 h, compared to untreated controls
M. tb H37Rv [20] = format: cell-based; conditions: 11626252 8.4 μM (100x the MIC50)
M. tb H37Rv ΔcydAB [21] = format: cell-based; conditions: 8X MIC, 32X MIC, 7 days, d.l. = limit of detection
[22] = system: cydB and lipU in M. tb H37Rv; format: cell-based, Mycobacterium tuberculosis; conditions: M. tb H37Rv exposed to 11626252, 4 h
M. tb H37Rv South Africa = assay: Acute model of murine TB; format: in vivo, Mycobacterium tuberculosis; conditions: Balb/c mice
[23] = Mycobacterium canettii STB-L, read-out: MIC

Compound	MIC (Escherichia coli PQ37)	MIC [1]	MIC (Pseudomonas aeruginosa)	MIC [2]	MIC (Listeria monocytogenes)	MIC (Micrococcus luteus)	MIC [3]	MIC [4]	microsomal CLint (in vitro)	Human microsome stability, clearance class [5]	MIC [7]	MIC [8]	MIC (Pseudomonas putida)	MIC (Candida albicans)	MIC (Bacillus subtilis)	MIC [11]	MIC [12]	MIC (Salmonella typhimurium)	MIC (Enterococcus faecalis)	MIC [14]	also measured
CNc1nc(SCc2ccccc2)nc2cccc(F)c12																					melting point: 101 to 104 °C
CCSc1nc(NC)c2cc(C(F)(F)F)ccc2n1																					melting point: 161 to 163 °C
CCSc1nc(NC)c2ccccc2n1 [Compound 11626141]	≥ 100 µg/mL	0.01 µg/mL (≈ 0.0456 µM)	≥ 100 µg/mL	62.4 µg/mL (≈ 285 µM)	≥ 100 µg/mL	≥ 100 µg/mL	0.9 µg/mL (≈ 4.1 µM)	≥ 100 µg/mL	120 µL/min/mg	high	≥ 100 µg/mL	≥ 100 µg/mL	≥ 100 µg/mL	≥ 100 µg/mL	≥ 100 µg/mL	38.4 µg/mL (≈ 175 µM)	0.05 µg/mL (≈ 0.228 µM)	≥ 100 µg/mL	≥ 100 µg/mL	66.8 µg/mL (≈ 305 µM)	MIC ([6]; MDR59744, read-out: MIC): 0.02 µg/mL (≈ 0.0912 µM); IC50 [9]: 0.013 µg/mL (≈ 0.0593 µM); Activity against non-replicating strain 18b [10]: no activity; MIC [13, 23]: 0.05 µg/mL (≈ 0.228 µM); MIC (Staphylococcus aureus): ≥ 100 µg/mL; MIC [15]: ≥ 100 µg/mL; Selective index TD50/MIC (HepG2 cells): 575; HepG2 TD99 (HepG2 cells): 53 µg/mL; MIC [16]: ≥ 100 µg/mL; MIC [17]: 0.1 µg/mL (≈ 0.456 µM)
CCNc1nc(SCC)nc2ccccc12 [Compound 11626142]	≥ 100 µg/mL	0.1 µg/mL (≈ 0.429 µM)	≥ 100 µg/mL	100 µg/mL (≈ 429 µM)	≥ 100 µg/mL	≥ 100 µg/mL	0.8 µg/mL (≈ 3.43 µM)	44.3 µg/mL (≈ 190 µM)	122 µL/min/mg	high	≥ 100 µg/mL	49.1 µg/mL (≈ 210 µM)	≥ 100 µg/mL	44.3 µg/mL (≈ 190 µM)	≥ 100 µg/mL	75.6 µg/mL (≈ 324 µM)	0.2 µg/mL (≈ 0.857 µM)	≥ 100 µg/mL	≥ 100 µg/mL	75 µg/mL (≈ 321 µM)	MIC ([6]; MDR59744, read-out: MIC): 0.09 µg/mL (≈ 0.386 µM); IC50 [9]: 0.012 µg/mL (≈ 0.0514 µM); Activity against non-replicating strain 18b [10]: no activity; MIC [13, 23]: 0.2 µg/mL (≈ 0.857 µM); MIC (Staphylococcus aureus): ≥ 100 µg/mL; MIC [15]: ≥ 100 µg/mL; Selective index TD50/MIC (HepG2 cells): 100; HepG2 TD99 (HepG2 cells): 26 µg/mL; MIC [16]: ≥ 100 µg/mL; MIC [17]: 0.8 µg/mL (≈ 3.43 µM)
CCSc1nc(NC)c2cccc(F)c2n1 [Compound 11626252]	≥ 100 µg/mL	0.02 µg/mL (≈ 0.0843 µM)	≥ 100 µg/mL	≥ 100 µg/mL	≥ 100 µg/mL	≥ 100 µg/mL	1.6 µg/mL (≈ 6.74 µM)	≥ 100 µg/mL	18.1 µL/min/mg	medium	≥ 100 µg/mL	≥ 100 µg/mL	≥ 100 µg/mL	≥ 100 µg/mL	≥ 100 µg/mL	32.3 µg/mL (≈ 136 µM)	0.03 µg/mL (≈ 0.126 µM)	≥ 100 µg/mL	≥ 100 µg/mL	47.2 µg/mL (≈ 199 µM)	MIC ([6]; MDR59744, read-out: MIC): 0.02 µg/mL (≈ 0.0843 µM); static or cidal activity by CFU enumeration (M. tb H37Rv [18]): bacteriostatic; IC50 [9]: 0.011 µg/mL (≈ 0.0464 µM); Activity against non-replicating strain 18b [10]: no activity; oxygen consumption rate (OCR) after exposure (M. tb H37Rv ΔcydAB [19]): rapid and sustained decrease; remaining relative ATP level (H37Rv): 19.81±8.125%; MIC [13, 23]: 0.03 µg/mL (≈ 0.126 µM); oxygen consumption rate (OCR) after exposure (M. tb H37Rv [20]): increased; MIC (Staphylococcus aureus): ≥ 100 µg/mL; MIC [15]: ≥ 100 µg/mL; log10 CFU/mL (M. tb H37Rv ΔcydAB [21]): < d.l.; Selective index TD50/MIC (HepG2 cells): 1950; HepG2 TD99 (HepG2 cells): > 100 µg/mL; MIC [16]: ≥ 100 µg/mL; MIC [17]: 0.007 µg/mL (≈ 0.0295 µM); expression of cydB and lipU (qRT-PCR) [22]: Overexpression
CCSc1nc(NC)c2ccc(F)c(F)c2n1 [Compound 11726148]									28.7 µL/min/mg	medium											melting point: 186 to 189 °C; decrease of bacterial burden in the lungs (M. tb H37Rv South Africa; 150 mg/kg gavage daily for 10 days, vs untreated TPGS control, p-value 0.004): 0.51 log10 CFU/organ; Selective index TD50/MIC (HepG2 cells): 780; HepG2 TD99 (HepG2 cells): > 100 µg/mL
NNC(=O)c1ccncc1 [INH, isoniazid, reference compound]																					log10 CFU per lung (M. tb H37Rv South Africa; INH 25mg/kg gavage, 10 days, d.l. = limit of detection): < d.l.
CO[C@H]1/C=C/O[C@@]2(C)Oc3c(C)c(O)c4c(O)c(c(/C=N/N5CCN(C)CC5)c(O)c4c3C2=O)NC(=O)/C(C)=C\C=C\[C@H](C)[C@H](O)[C@@H](C)[C@@H](O)[C@@H](C)[C@H](OC(C)=O)[C@@H]1C [RIF, rifampicin, reference compound]	6.5 µg/mL (≈ 7.9 µM)	0.001 µg/mL (≈ 0.00122 µM)	0.2 µg/mL (≈ 0.243 µM)	18.1 µg/mL (≈ 22 µM)	0.6 µg/mL (≈ 0.729 µM)	0.2 µg/mL (≈ 0.243 µM)	0.0008 µg/mL (≈ 0.000972 µM)	0.5 µg/mL (≈ 0.608 µM)			6.6 µg/mL (≈ 8.02 µM)	27.3 µg/mL (≈ 33.2 µM)	3 µg/mL (≈ 3.65 µM)	2.2 µg/mL (≈ 2.67 µM)	0.3 µg/mL (≈ 0.365 µM)	0.9 µg/mL (≈ 1.09 µM)	0.0006 µg/mL (≈ 0.000729 µM)	0.8 µg/mL (≈ 0.972 µM)	3.9 µg/mL (≈ 4.74 µM)	0.004 µg/mL (≈ 0.00486 µM)	MIC ([6]; MDR59744): ≥ 10 µg/mL; MIC [13]: 0.001 µg/mL (≈ 0.00122 µM); MIC (Staphylococcus aureus): 1.4 µg/mL (≈ 1.7 µM); MIC [15]: 9.5 µg/mL (≈ 11.5 µM); MIC [16]: 24.8 µg/mL (≈ 30.1 µM); MIC [17]: 0.2 µg/mL (≈ 0.243 µM)
